Reference: patent US12343326B2, “Psychoactive medicines and their use for treating psychiatric and neurological conditions and disorders” (Transcend Therapeutics, Inc., priority 2021, dated 2025)

Columns and labels:
Assay in all cases: β-arrestin based GPCR screen (PathHunter / GPCRmax), antagonist mode
168 GPCRs [1] = target: 168 GPCRs (Homo sapiens, UniProt P11229); conditions: CHRM1, Antagonist
168 GPCRs [2] = target: 168 GPCRs (Homo sapiens, UniProt P18825); conditions: ADRA2C, Antagonist
168 GPCRs [3] = target: 168 GPCRs (Homo sapiens, UniProt P21918)
168 GPCRs [4] = target: 168 GPCRs (Homo sapiens, UniProt P25116); conditions: F2R; Antagonist; 1 uM
Target sequence in this assay (P25116 22-425): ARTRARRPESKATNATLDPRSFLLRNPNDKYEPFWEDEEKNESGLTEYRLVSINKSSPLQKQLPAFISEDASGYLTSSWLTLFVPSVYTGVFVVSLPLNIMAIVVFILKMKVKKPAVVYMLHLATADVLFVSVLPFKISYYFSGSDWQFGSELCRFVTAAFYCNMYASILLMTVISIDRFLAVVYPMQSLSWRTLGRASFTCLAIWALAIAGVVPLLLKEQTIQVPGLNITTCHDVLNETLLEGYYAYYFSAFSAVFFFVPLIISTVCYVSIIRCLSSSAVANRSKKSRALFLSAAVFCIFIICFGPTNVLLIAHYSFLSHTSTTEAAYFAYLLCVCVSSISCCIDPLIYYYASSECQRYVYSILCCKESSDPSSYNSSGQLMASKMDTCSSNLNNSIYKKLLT

168 GPCRs [5] = target: 168 GPCRs (Homo sapiens, UniProt P25116); conditions: F2F, Antagonist mode, 10 uM
Target sequence in this assay (P25116 22-425): as above

168 GPCRs [6] = target: 168 GPCRs (Homo sapiens, UniProt P30556); conditions: AGTR1, Antagonist
168 GPCRs [7] = target: 168 GPCRs (Homo sapiens, UniProt P32239); conditions: CCKBR, Antagonist
168 GPCRs [8] = target: 168 GPCRs (Homo sapiens, UniProt P32246); conditions: CCR1, Antagonist
168 GPCRs [9] = target: 168 GPCRs (Homo sapiens, UniProt P33032); conditions: MC5R
168 GPCRs [10] = target: 168 GPCRs (Homo sapiens, UniProt P34981); conditions: TRHR
168 GPCRs [11] = target: 168 GPCRs (Homo sapiens, UniProt P35346)
168 GPCRs [12] = target: 168 GPCRs (Homo sapiens, UniProt P35462)
168 GPCRs [13] = target: 168 GPCRs (Homo sapiens, UniProt P46091)
168 GPCRs [14] = target: 168 GPCRs (Homo sapiens, UniProt P47898); conditions: HTR5A
168 GPCRs [15] = target: 168 GPCRs (Homo sapiens, UniProt P48145)
168 GPCRs [16] = target: 168 GPCRs (Homo sapiens, UniProt P48146)
168 GPCRs [17] = target: 168 GPCRs (Homo sapiens, UniProt P49146); conditions: NPY2R
168 GPCRs [18] = target: 168 GPCRs (Homo sapiens, UniProt P61073)
168 GPCRs [19] = target: 168 GPCRs (Homo sapiens, UniProt Q01726); conditions: MC1R
168 GPCRs [20] = target: 168 GPCRs (Homo sapiens, UniProt Q96LB1)
168 GPCRs [21] = target: T1, 168 GPCRs (Homo sapiens, UniProt Q96RI0)
T1 sequence (Q96RI0 18-385): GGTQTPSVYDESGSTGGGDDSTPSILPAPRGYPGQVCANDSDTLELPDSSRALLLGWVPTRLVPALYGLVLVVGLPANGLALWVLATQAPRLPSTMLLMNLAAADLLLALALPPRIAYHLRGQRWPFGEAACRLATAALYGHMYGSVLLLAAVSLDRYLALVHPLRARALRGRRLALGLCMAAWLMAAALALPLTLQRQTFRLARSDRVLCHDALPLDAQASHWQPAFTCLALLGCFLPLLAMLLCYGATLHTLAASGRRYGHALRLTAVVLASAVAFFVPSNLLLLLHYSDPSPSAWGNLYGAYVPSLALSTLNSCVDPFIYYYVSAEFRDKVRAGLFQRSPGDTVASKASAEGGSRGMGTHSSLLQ

168 GPCRs (Homo sapiens, UniProt P33032), sequence (P33032 whole entry): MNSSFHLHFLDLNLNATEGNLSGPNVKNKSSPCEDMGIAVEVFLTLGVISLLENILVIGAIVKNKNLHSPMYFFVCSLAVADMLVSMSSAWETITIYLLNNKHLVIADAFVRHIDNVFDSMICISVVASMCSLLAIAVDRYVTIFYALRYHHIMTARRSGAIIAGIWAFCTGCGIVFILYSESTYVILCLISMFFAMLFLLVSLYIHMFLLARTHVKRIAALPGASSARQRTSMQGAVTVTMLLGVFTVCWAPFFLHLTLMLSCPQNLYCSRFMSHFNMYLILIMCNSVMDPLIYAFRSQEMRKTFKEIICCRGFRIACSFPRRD
168 GPCRs (Homo sapiens, UniProt P21918), sequence (P21918 whole entry): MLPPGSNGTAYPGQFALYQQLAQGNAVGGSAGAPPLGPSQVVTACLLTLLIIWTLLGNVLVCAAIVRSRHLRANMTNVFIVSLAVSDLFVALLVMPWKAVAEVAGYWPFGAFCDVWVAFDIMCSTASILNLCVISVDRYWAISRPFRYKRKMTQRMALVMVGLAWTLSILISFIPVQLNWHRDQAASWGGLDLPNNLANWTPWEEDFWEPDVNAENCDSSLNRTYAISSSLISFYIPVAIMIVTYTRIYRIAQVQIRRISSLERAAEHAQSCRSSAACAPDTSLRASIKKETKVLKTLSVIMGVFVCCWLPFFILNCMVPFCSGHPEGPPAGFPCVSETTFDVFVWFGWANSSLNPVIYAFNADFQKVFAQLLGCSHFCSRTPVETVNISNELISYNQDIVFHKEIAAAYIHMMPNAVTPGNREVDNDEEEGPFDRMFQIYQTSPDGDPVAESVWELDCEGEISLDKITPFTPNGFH
168 GPCRs (Homo sapiens, UniProt P34981), sequence (P34981 whole entry): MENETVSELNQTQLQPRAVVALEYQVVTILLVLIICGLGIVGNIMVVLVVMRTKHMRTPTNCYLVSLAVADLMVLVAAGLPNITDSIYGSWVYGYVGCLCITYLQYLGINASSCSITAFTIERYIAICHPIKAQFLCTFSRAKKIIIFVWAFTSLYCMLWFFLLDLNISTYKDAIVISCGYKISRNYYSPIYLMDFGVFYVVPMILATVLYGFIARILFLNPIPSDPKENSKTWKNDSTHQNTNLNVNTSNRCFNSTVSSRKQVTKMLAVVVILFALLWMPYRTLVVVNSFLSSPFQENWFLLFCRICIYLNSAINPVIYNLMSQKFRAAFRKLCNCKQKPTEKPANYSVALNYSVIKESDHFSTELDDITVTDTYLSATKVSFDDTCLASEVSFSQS
168 GPCRs (Homo sapiens, UniProt Q01726), sequence (Q01726 whole entry): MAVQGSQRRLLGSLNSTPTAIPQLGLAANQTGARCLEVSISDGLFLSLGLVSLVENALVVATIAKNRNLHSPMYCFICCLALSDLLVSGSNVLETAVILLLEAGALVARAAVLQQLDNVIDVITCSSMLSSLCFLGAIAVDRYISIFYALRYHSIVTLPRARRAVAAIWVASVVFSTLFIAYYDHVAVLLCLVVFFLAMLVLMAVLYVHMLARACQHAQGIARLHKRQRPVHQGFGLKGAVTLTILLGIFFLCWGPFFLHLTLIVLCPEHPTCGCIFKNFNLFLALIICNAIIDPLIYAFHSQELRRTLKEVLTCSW
168 GPCRs (Homo sapiens, UniProt P48145), sequence (P48145 whole entry): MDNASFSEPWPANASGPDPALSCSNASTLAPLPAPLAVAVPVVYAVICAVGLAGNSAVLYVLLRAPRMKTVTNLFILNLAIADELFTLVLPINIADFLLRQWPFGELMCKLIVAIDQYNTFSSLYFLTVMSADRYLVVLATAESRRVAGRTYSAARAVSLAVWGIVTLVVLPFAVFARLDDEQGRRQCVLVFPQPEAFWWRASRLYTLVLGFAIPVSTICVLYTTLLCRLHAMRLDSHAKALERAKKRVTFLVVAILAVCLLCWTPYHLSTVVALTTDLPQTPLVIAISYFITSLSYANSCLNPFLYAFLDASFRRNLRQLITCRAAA
168 GPCRs (Homo sapiens, UniProt P11229), sequence (P11229 whole entry): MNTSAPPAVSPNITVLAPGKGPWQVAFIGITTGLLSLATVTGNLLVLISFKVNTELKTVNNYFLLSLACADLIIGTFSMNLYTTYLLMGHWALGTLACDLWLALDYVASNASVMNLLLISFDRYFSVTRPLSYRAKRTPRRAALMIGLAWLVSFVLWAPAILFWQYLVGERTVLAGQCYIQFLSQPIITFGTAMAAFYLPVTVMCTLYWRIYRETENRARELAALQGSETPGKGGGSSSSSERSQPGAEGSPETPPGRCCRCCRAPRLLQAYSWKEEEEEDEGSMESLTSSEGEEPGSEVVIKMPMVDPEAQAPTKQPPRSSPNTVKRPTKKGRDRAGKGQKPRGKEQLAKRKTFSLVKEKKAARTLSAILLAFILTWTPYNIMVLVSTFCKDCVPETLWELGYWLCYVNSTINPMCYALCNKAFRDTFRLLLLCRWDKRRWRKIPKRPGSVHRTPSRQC
168 GPCRs (Homo sapiens, UniProt P46091), sequence (P46091 whole entry): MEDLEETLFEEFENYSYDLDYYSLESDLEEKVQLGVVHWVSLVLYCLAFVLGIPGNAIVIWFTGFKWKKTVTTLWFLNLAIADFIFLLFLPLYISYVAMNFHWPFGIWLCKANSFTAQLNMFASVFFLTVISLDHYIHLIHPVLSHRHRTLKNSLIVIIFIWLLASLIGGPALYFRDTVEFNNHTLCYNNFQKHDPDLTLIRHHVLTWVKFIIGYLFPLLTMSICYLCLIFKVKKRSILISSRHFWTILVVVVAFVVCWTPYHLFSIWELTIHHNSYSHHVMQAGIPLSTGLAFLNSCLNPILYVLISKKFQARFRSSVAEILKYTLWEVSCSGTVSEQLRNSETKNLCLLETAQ
168 GPCRs (Homo sapiens, UniProt P35462), sequence (P35462 whole entry): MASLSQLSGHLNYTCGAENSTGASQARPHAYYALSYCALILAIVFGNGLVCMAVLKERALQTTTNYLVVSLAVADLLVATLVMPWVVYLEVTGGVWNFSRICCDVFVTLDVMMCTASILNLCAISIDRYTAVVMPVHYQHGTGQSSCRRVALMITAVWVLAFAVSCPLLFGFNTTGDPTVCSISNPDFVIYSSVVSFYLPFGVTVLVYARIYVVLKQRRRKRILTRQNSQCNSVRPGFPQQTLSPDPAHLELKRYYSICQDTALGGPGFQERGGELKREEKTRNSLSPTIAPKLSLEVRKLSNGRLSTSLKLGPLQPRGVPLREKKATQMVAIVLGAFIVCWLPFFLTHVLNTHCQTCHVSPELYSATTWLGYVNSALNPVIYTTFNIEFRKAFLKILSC
168 GPCRs (Homo sapiens, UniProt P47898), sequence (P47898 whole entry): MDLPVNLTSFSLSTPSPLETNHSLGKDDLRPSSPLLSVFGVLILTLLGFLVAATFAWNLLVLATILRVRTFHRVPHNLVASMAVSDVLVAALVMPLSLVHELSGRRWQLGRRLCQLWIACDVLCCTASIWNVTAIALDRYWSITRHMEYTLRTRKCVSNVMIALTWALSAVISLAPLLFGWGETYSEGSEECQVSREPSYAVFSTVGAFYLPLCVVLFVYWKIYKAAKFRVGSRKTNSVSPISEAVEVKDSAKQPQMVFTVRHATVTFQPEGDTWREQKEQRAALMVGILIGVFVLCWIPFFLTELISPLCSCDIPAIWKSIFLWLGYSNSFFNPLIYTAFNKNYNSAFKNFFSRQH
168 GPCRs (Homo sapiens, UniProt P48146), sequence (P48146 whole entry): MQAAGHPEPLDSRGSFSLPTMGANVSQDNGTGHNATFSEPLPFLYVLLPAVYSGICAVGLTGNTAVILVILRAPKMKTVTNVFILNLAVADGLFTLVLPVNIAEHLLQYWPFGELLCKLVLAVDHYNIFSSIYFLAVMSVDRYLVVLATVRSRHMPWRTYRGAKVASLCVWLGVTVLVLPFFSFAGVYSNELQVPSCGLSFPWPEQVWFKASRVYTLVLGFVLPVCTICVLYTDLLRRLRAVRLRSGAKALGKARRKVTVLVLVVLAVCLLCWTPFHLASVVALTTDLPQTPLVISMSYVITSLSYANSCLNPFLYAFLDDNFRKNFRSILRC
168 GPCRs (Homo sapiens, UniProt Q96LB1), sequence (Q96LB1 whole entry): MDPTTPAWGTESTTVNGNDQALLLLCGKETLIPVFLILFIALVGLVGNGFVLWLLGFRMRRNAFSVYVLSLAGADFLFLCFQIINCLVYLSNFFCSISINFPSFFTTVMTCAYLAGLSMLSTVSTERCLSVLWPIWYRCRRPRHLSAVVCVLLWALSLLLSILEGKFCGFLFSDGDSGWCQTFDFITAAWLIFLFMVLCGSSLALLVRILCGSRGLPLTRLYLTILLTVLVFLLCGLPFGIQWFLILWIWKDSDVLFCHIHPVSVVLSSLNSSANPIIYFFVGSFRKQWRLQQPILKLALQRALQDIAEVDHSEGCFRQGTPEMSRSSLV
168 GPCRs (Homo sapiens, UniProt P30556), sequence (P30556 whole entry): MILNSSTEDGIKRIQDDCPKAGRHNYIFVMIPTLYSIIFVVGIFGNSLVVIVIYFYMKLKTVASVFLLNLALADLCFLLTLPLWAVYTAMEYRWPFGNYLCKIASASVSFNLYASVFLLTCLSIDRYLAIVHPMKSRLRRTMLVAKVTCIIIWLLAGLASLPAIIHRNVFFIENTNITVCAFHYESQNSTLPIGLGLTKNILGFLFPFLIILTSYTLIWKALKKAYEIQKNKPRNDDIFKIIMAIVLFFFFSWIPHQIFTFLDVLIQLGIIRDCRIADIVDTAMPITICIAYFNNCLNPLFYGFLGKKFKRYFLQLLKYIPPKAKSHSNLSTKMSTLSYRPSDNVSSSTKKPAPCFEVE

With `CNC(C)C(=O)c1ccc2c(c1)OCO2` (stereo not shown) [methylone, 3,4-methylenedioxy-N-methylcathinone] the activity at 1 µM (168 GPCRs [1]; 1 uM) was 15.8%, the activity at 10 µM (168 GPCRs [1]; 10 uM) was 2% and the activity at 1 µM (168 GPCRs [2]; 1 uM) was -4.3%. The activity at 10 µM (168 GPCRs [2]; 10 uM) was 17.6%, the activity at 10 µM (168 GPCRs [3]; DRD5, Antagonist mode, 10 uM) was -2.6% and the activity at 1 µM (168 GPCRs [3]; DRD5, Antagonist, 1 uM) was -5.9%. For the same compound, the activity at 1 µM (168 GPCRs [4]) was -11.6%, the activity at 10 µM (168 GPCRs [5]) was -11.4% and the activity at 1 µM (168 GPCRs [6]; 1 uM) was 3.3%. It also gave an activity at 10 µM (168 GPCRs [6]; 10 uM) of -1.4%, an activity at 1 µM (168 GPCRs [7]; 1 uM) of -1.1% and an activity at 10 µM (168 GPCRs [7]; 10 uM) of -2.4%. The activity at 1 µM (168 GPCRs [8]; 1 uM) was -8.1%, the activity at 10 µM (168 GPCRs [8]; 10 uM) was -16.6% and the activity at 10 µM (168 GPCRs [9]; Antagonist mode, 10 uM) was -6.3%. For the same compound, the activity at 1 µM (168 GPCRs [9]; Antagonist, 1 uM) was 1.7%, the activity at 10 µM (168 GPCRs [10]; Antagonist mode, 10 uM) was 2.8% and the activity at 1 µM (168 GPCRs [10]; Antagonist, 1 uM) was -7.2%. It also gave an activity at 10 µM (168 GPCRs [11]; SSTR5, Antagonist mode, 10 uM) of 5.7%, an activity at 1 µM (168 GPCRs [11]; SSTR5, Antagonist, 1 uM) of 14.7% and an activity at 10 µM (168 GPCRs [12]; DRD3, Antagonist mode, 10 uM) of -17.8%. The activity at 1 µM (168 GPCRs [12]; DRD3, Antagonist, 1 uM) was -12%, the activity at 10 µM (168 GPCRs [13]; GPR1, Antagonist mode, 10 uM) was 7.4% and the activity at 1 µM (168 GPCRs [13]; GPR1, Antagonist, 1 uM) was 4.4%. For the same compound, the activity at 10 µM (168 GPCRs [14]; Antagonist mode, 10 uM) was 1.6%, the activity at 1 µM (168 GPCRs [14]; Antagonist, 1 uM) was 9.8% and the activity at 10 µM (168 GPCRs [15]; NPBWR1, Antagonist mode, 10 uM) was 25.1%. The activity at 1 µM (168 GPCRs [15]; NPBWR1, Antagonist, 1 uM) was 17.1%, the activity at 10 µM (168 GPCRs [16]; NPBWR2, Antagonist mode, 10 uM) was -14% and the activity at 1 µM (168 GPCRs [16]; NPBWR2, Antagonist, 1 uM) was -14.1%. The activity at 10 µM (168 GPCRs [17]; Antagonist mode, 10 uM) was 2%, the activity at 1 µM (168 GPCRs [17]; Antagonist, 1 uM) was 2.3% and the activity at 10 µM (168 GPCRs [18]; CXCR4, Antagonist mode, 10 uM) was -4.2%. The activity at 1 µM (168 GPCRs [18]; CXCR4, Antagonist, 1 uM) was 10.7%, the activity at 10 µM (168 GPCRs [19]; Antagonist mode, 10 uM) was 15.9% and the activity at 1 µM (168 GPCRs [19]; Antagonist, 1 uM) was 20.1%. The activity at 10 µM (168 GPCRs [20]; MRGPRX2, Antagonist mode, 10 uM) was 8.9%, the activity at 1 µM (168 GPCRs [20]; MRGPRX2, Antagonist, 1 uM) was 16.2% and the activity at 10 µM (168 GPCRs [21]; F2RL3, Antagonist mode, 10 uM) was -6.9%. It also gave an activity at 1 µM (168 GPCRs [21]; F2RL3, Antagonist, 1 uM) of -11.3%.
